Laboratory results published in patent publication US5190922A (priority 1991, dated 1993).
Like-named read-outs stand apart in the source and are kept apart here. Non-standard residues stand in square brackets, D forms with d. Residues, ends and D or L forms follow the SMILES beside them. *: point of attachment. NMeF = CN[C@@H](Cc1ccccc1)C(=O)O; PhLac = O=C(O)[C@@H](O)Cc1ccccc1; Cha = N[C@@H](CC1CCCCC1)C(=O)O; dCha = N[C@H](CC1CCCCC1)C(=O)O; NHBn = c1ccc(CN*)cc1; Bz = O=C(c1ccccc1)*

Target: T1, C5a Receptor (Homo sapiens, UniProt P21730)
T1 construct: 2.5-25 μg/mL of purified PMNL membrane fragments; from tissue; host or cells: polymorphonuclear leukocyte (PMNL) membrane fragments
T1 sequence (P21730 1-350): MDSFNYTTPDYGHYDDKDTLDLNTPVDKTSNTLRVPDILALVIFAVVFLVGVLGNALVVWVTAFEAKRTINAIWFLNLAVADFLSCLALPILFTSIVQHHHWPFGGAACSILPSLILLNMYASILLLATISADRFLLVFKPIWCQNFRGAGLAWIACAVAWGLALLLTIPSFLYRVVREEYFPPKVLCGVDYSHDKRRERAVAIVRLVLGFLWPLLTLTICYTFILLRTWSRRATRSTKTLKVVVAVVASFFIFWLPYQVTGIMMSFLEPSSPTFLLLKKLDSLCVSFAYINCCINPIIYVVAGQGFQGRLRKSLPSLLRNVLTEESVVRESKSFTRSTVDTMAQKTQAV
Assay: Anaphylatoxin receptor binding Ki determination (inhibition of 125I-C5a binding to PMNL membrane fragments)
Description: Specific inhibition of C5 a binding activity of representative compounds of the present invention was measured using 0.03-1 nM ^125 I-C5 a with 2.5-25 μg/mL of purified PMNL membrane fragments (Borregaard, N.; Heiple, J. M.; Simons, E. R.; and Clark, R. A. J. Cell. Biol. 1983, 97, 52-61.). Free and membrane-bound ligand were separated by filtration.

[1] = 0.03-1 nM 125I-C5a, 2.5-25 μg/mL purified PMNL membrane fragments, filtration, read-out: Ki (In vitro C5a Receptor Binding Potency)

| SMILES | Ki [1] | Ki |
| --- | --- | --- |
| N=C(N)NCCC[C@@H](NC(=O)[C@H](Cc1ccccc1)NC(=O)[C@@H](CC1CCCCC1)NC(=O)[C@@H]1CCCN1C(=O)[C@H](CCCCN)NC(=O)[C@@H](O)Cc1ccccc1)C(=O)O [Example 84, {(3S)-Phenyllactyl)-Lysyl-Prolyl-{(2R)-2-Amino-3-cyclohexylpropanoyl}-Phenylalanyl-DArginyl-OH] (H-[PhLac]KP[dCha]F[dR]-OH) | 0.062 µM |  |
| N=C(N)NCCC[C@@H](NC(=O)[C@H](CC1CCCCC1)NC(=O)[C@@H](CC1CCCCC1)NC(=O)[C@@H]1CCCN1C(=O)[C@H](CCCCN)NC(=O)c1ccccc1)C(=O)O [Example 82, N-Benzoyl-Lysyl-Prolyl-{(2R)-2-Amino-3-cyclohexylpropanoyl}-{(2S)-2-Amino-3-cyclohexylpropanoyl}-DArginyl-OH] (Bz-KP[dCha][Cha][dR]-OH) |  | 24 µM |
| CN[C@@H](Cc1ccccc1)C(=O)N[C@@H](CCCCN)C(=O)N1CCC[C@H]1C(=O)N[C@H](CC1CCCCC1)C(=O)N[C@@H](CC1CCCCC1)C(=O)NCc1ccccc1 [Example 96, (N-Methyl)Phenylalanyl-Lysyl-Prolyl-{(2R)-2-Amino-3-cyclohexylpropanoyl}-{(2S)-2-Amino-3-cyclohexylpropanoyl}-N-Benzylamide] (H-[NMeF]KP[dCha][Cha]-NHBn) | 0.09 µM |  |
